From patent publication EP0526540B1, “USE OF 5-HT4-RECEPTOR ANTAGONISTS IN THE TREATMENT OF ATRIAL FIBRILLATION, INCLUDING THE PREVENTION OF STROKE” (SMITH KLINE & FRENCH LABORATORIES LIMITED, priority 1990, dated 1991)

Assays:
cardiac 5-HT4 receptors [1] = target: T1, cardiac 5-HT4 receptors (Homo sapiens, UniProt Q13639); experiment: Human right atrial preparations (force), blocking potency of antagonists; assay type: cell-based; details: Granisetron tested at 20 µM
T1 construct: from tissue; host or cells: human right atrial preparation

cardiac 5-HT4 receptors [2] = target: cardiac 5-HT4 receptors (Sus scrofa, UniProt Q6Q253); experiment: Piglet spontaneous beating atria screen (right atrium, positive chronotropic effect, antagonism of 5-HT); assay type: cell-based, Porcine
Method: Method (See A. J. Kaumann, 1990, Naunyn-Schmiedeberg's Arch. Pharmacol 342, 619-622).
Piglets of either sex, 2 to 5 days old, were obtained from local farms. Usually 2 piglets were from the same litter. The piglets were anaesthetised with halothene; their hearts rapidly removed and washed free of blood with warm solution containing (mM):120 Na^+, 5 K^+, 2.25 Ca^2+, 0.5 Mg^2+, 98.5 Cl^-, 0.5 SO4^2-, 34 HCO3^-, 1 HPO4^2-, 0.04 EDTA, deionised and double distilled water in glass, equilibrated with 95% O2 and 5% CO2.
After dissection of the right atrium in warm solution, the tissue was set up in an apparatus with a 50 ml. bath (Blinks, 1965 J. Appl. Physiol. 20, 755-757), containing the solution described above supplemented with (mM):15 Na^+, 5 fumarate, 5 pyruvate, 5 L-glutamate, 10 glucose. Experiments were carried out at 37°C. […] The tissue was attached to a Swema SG4-45 strain gauge transducer by means of a stainless steel wire and force recorded on a Watanabe polygraph. […]
A single cumulative concentration-effect curve was determined by the sequential addition of 5-HT or other agonists to the bath in amounts that increased the total concentration in steps of ½ log unit. […] The time of incubation with an antagonist was at least 1 hr before a concentration-effect curve for an agonist was determined.

cardiac 5-HT4 receptors (Sus scrofa, UniProt Q6Q253), sequence (Q6Q253 1-402): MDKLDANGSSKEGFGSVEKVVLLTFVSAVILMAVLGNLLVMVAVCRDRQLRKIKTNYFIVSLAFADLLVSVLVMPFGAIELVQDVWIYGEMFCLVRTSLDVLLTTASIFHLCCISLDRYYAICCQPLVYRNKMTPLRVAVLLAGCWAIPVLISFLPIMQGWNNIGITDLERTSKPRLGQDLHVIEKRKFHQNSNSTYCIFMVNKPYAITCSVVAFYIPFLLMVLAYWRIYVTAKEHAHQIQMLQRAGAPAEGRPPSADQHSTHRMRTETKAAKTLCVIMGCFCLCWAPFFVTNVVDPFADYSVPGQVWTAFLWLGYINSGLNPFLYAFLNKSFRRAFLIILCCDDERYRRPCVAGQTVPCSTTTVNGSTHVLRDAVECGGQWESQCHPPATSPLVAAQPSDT
T1 sequence (Q13639 whole entry): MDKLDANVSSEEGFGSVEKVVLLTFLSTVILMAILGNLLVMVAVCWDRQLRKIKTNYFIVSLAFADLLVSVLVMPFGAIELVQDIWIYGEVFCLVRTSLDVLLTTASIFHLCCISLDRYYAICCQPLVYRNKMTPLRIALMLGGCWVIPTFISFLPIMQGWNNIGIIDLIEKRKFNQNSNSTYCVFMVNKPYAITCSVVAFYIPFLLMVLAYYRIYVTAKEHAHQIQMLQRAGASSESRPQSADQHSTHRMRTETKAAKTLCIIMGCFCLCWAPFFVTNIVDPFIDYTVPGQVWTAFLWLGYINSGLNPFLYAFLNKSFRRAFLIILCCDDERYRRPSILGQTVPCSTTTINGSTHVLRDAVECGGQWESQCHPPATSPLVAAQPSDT

| pK (-log M equilibrium dissociation constant), blocking potency, Human (force) (cardiac 5-HT4 receptors [1]) | pK (-log M equilibrium dissociation constant), blocking potency, Porcine (rate) (cardiac 5-HT4 receptors [2]; piglet spontaneously beating right atrium, rate, 37°C, 400 nM (±)-propranolol and 6 µM cocaine present, antagonist incubated at least 1 hr, Granisetron tested at 1 µM, preliminary screening results) | Compound | type of antagonism of cardiac 5-HT4 receptors (cardiac 5-HT4 receptors [2]; conclusion from the preliminary screening results of Table 1) |
| --- | --- | --- | --- |
| ineffective (20 µM) | ineffective (1 µM) | CN1C2CCCC1CC(NC(=O)c1nn(C)c3ccccc13)C2 (stereo not drawn) [Granisetron] | – |
| – | – | CN1[C@@H]2CC[C@H]1C[C@@H](OC(=O)c1n[nH]c3ccccc13)C2 [(3-α-tropanyl)-1H-indazole-3-carboxylic acid ester] | competitive antagonist |
